This is an account of results in ChEMBL document CHEMBL5241112, “Insights into the recent progress in the medicinal chemistry of pyranopyrimidine analogs” (RSC Med Chem, 2022).

Assay [1] concerns Pseudomonas aeruginosa. Nature of the assay: Antibacterial activity against Pseudomonas aeruginosa assessed as inhibition of bacterial growth. The assay is classed as functional.
The subject of another assay is Aspergillus flavus. Briefly: Antifungal activity against Aspergillus flavus assessed as inhibition of fungal growth. The assay is classed as functional.
The test system of assay [2] is Escherichia coli. Nature of the assay: Antibacterial activity against Escherichia coli assessed as inhibition of bacterial growth. The assay is classed as functional.
The test system of assay [3] is Candida albicans. Nature of the assay: Antifungal activity against Candida albicans assessed as inhibition of fungal growth. In kind it is functional.
The test system of assay [4] is Staphylococcus aureus. Nature of the assay: Antibacterial activity against Staphylococcus aureus assessed as inhibition of bacterial growth. The assay is classed as functional.
The next assay concerns Aspergillus niger. Nature of the assay: Antifungal activity against Aspergillus niger assessed as inhibition of fungal growth. The assay is classed as functional.
The next assay relates to HCT-116. Briefly: Anticancer activity against human HCT-116 cells assessed as reduction in cell viability incubated for 96 hrs by MTT assay. The assay is classed as functional, cell-based. As to conditions: HCT-116, 96 h.
Assay [5] relates to Salmonella typhimurium. Briefly: Antimicrobial activity against Salmonella typhimurium ATCC 19430 assessed as diameter of inhibition zone at 20 mg/ml incubated for 24 hrs by disk diffusion method. The assay is classed as functional, Salmonella enterica subsp. enterica serovar Typhimurium. As to conditions: Salmonella enterica, read-out: DIZ.
The test system of assay [6] is Klebsiella pneumoniae. Briefly: Antimicrobial activity against Klebsiella pneumoniae ATCC 15380 assessed as diameter of inhibition zone at 20 mg/ml incubated for 24 hrs by disk diffusion method. In kind it is functional. As to conditions: read-out: DIZ.
For assay [7], the system named is Escherichia coli. Nature of the assay: Antimicrobial activity against Escherichia coli ATCC 25922 assessed as diameter of inhibition zone at 20 mg/ml incubated for 24 hrs by disk diffusion method. In kind it is functional. Particulars: read-out: DIZ.
For assay [8], the system named is Human immunodeficiency virus 2. Nature of the assay: Antiviral activity against HIV2 ROD infected in human MT4 cells assessed as reduction in virus-induced cytopathic effect by MTT assay. The assay is classed as functional, organism-based. Particulars: Human immunodeficiency virus 2, ROD.
For assay [9], the system named is Human immunodeficiency virus 1. Nature of the assay: Antiviral activity against HIV1 IIIB infected in human MT4 cells assessed as reduction in virus-induced cytopathic effect by MTT assay. The assay is classed as functional, organism-based. Particulars: Human immunodeficiency virus 1, IIIB.
The next assay concerns the target Alpha-glucosidase (Saccharomyces cerevisiae S288c, UniProt P53341+P38158+P07265). Nature of the assay: Inhibition of Saccharomyces cerevisiae alpha-glucosidase preincubated for 5 mins followed by PNP-GLUC substrate addition and measured after 20 mins by spectroscopic analysis. In kind it is protein assay.
Assay [10] relates to Staphylococcus aureus. Briefly: Antibacterial activity against Staphylococcus aureus MTCC 87 assessed as diameter of inhibition zone at 0.1 mg/ml incubated for 24 hrs by agar well diffusion method. In kind it is functional. As to conditions: read-out: DIZ.
The target in another assay is Albumin (Bos taurus, UniProt P02769). Nature of the assay: […] bovine serum albumin denaturation incubated for 23 mins by UV-Visible spectrophotometry.
Sequence of Albumin (P02769 whole entry): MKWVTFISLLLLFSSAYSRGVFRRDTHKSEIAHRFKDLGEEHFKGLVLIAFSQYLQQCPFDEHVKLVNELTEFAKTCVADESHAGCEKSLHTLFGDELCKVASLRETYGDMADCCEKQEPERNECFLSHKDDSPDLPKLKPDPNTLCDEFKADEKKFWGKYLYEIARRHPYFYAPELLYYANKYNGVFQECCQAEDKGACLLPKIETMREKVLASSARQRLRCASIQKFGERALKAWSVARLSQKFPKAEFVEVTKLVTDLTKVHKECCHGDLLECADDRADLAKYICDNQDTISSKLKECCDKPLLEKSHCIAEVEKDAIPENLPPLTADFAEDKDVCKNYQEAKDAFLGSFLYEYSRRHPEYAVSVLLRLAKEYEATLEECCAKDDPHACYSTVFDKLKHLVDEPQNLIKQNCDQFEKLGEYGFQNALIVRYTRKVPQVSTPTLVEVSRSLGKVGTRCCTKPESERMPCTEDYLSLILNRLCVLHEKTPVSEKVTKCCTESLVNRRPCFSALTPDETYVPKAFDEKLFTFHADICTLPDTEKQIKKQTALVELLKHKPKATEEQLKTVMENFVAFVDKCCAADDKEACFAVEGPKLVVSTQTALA
A short description of assay [11]: Inhibition of porcine pancreatic alpha-amylase preincubated for 10 mins followed by substrate starch addition and measured after 10 mins by colorimetric analysis. Details: species or system Sus scrofa.
In assay [12] the test system is Candida albicans. Briefly: Antifungal activity against Candida albicans assessed as diameter of inhibition zone incubated for 48 hrs by agar well diffusion method. In kind it is functional.
Assay [13] has as its system Staphylococcus aureus. Nature of the assay: Antibacterial activity against Staphylococcus aureus NCIM 2654 assessed as diameter of inhibition zone incubated for 24 hrs by agar well diffusion method. In kind it is functional.
The test system of assay [14] is Escherichia coli. Briefly: Antibacterial activity against Escherichia coli NCIM 2066 assessed as diameter of inhibition zone incubated for 24 hrs by agar well diffusion method. In kind it is functional.
The test system of another assay is Bacillus subtilis. Nature of the assay: Antibacterial activity against Bacillus subtilis MTCC 121 assessed as bacterial growth inhibition. In kind it is functional.
Assay [15] has as its system Pseudomonas aeruginosa. Nature of the assay: Antibacterial activity against Pseudomonas aeruginosa MTCC 2453 assessed as bacterial growth inhibition. The assay is classed as functional.
The next assay has as its system Micrococcus luteus. Nature of the assay: Antibacterial activity against Micrococcus luteus MTCC 2470 assessed as bacterial growth inhibition. The assay is classed as functional.
Assay [16] relates to Staphylococcus aureus. Briefly: Antibacterial activity against Staphylococcus aureus MLS-16 MTCC 2940 assessed as bacterial growth inhibition. The assay is classed as functional.
For the next assay, the system named is Raoultella planticola. Briefly: Antibacterial activity against Raoultella planticola MTCC 530 assessed as bacterial growth inhibition. In kind it is functional. Particulars: Klebsiella planticola.
The subject of assay [17] is Escherichia coli. Briefly: Antibacterial activity against Escherichia coli MTCC 739 assessed as bacterial growth inhibition. In kind it is functional.
The test system of assay [18] is Pseudomonas aeruginosa. Briefly: Antibacterial activity against Pseudomonas aeruginosa MTCC 741 assessed as diameter of inhibition zone at 0.1 mg/ml incubated for 24 hrs by agar well diffusion method. In kind it is functional. As to conditions: read-out: DIZ.
The test system of assay [19] is Escherichia coli. Briefly: Antibacterial activity against Escherichia coli MTCC 723 assessed as diameter of inhibition zone at 0.1 mg/ml incubated for 24 hrs by agar well diffusion method. In kind it is functional. Particulars: read-out: DIZ.
Assay [20] relates to Klebsiella pneumoniae. Nature of the assay: Antibacterial activity against Klebsiella pneumoniae MTCC 109 assessed as diameter of inhibition zone at 0.1 mg/ml incubated for 24 hrs by agar well diffusion method. In kind it is functional. As to conditions: read-out: DIZ.
A further assay concerns Clostridium tetani. Briefly: Antibacterial activity against Clostridium tetani MTCC 449 assessed as bacterial growth inhibition by broth microdilution method. The assay is classed as functional.
A further assay deals with Plasmodium falciparum. Briefly: microbe, parasite or virus in culture.
Assay [21] concerns Mycobacterium tuberculosis. Briefly: Antitubercular activity against Mycobacterium tuberculosis H37Rv assessed as bacterial growth inhibition at 250 ug/ml. In kind it is functional.
The test system of a further assay is Aspergillus fumigatus. Nature of the assay: Antifungal activity against Aspergillus fumigatus MTCC 227 assessed as fungal growth inhibition by broth microdilution method. The assay is classed as functional.
Assay [22] deals with Candida albicans. Briefly: Antifungal activity against Candida albicans MTCC 3008 assessed as fungal growth inhibition by broth microdilution method. The assay is classed as functional.
Assay [23] concerns Mycobacterium tuberculosis. Nature of the assay: Antitubercular activity against Mycobacterium tuberculosis H37Rv assessed as bacterial growth inhibition at 100 ug/ml. In kind it is functional.
Assay [24] relates to Salmonella typhimurium. Nature of the assay: Antibacterial activity against Salmonella typhimurium MTCC 98 assessed as bacterial growth inhibition by broth microdilution method. As to conditions: Salmonella enterica. In kind it is functional, Salmonella enterica subsp. enterica serovar Typhimurium.

The structures appear in SMILES notation. In brackets after ≈: the same amount, converted by molar mass. Some results are limits rather than exact numbers.

As to `N#CC1=C(N)Oc2[nH]c(=O)[nH]c(=O)c2C1c1ccccc1O` (configuration not stated), the MIC in the assay on Pseudomonas aeruginosa [1] turned out to be 25 µg/mL (≈ 83.8 µM); with Aspergillus flavus it was 150 µg/mL (≈ 503 µM); in the assay on Escherichia coli [2], 75 µg/mL (≈ 251 µM); with Candida albicans [3], 125 µg/mL (≈ 419 µM); with Staphylococcus aureus [4], 25 µg/mL (≈ 83.8 µM); in the assay on Aspergillus niger it was 162 µg/mL (≈ 545 µM).

On to `N#CC1=C(N)Oc2[nH]c(=O)[nH]c(=O)c2C1c1cccs1` (configuration not stated), for which the IC50 in the assay on HCT-116 was 2760 nM. Also, the MIC with Aspergillus flavus stood at 150 µg/mL (≈ 520 µM); with Candida albicans [3], 125 µg/mL (≈ 434 µM); in the assay on Aspergillus niger, 162 µg/mL (≈ 564 µM). In addition, the zone of inhibition at 20000 µg/mL in the assay on Salmonella typhimurium [5] was determined as 20 mm; in the assay with Klebsiella pneumoniae [6] it was 16 mm; in the assay on Escherichia coli [7], 14 mm.

Consider `Cc1cn([C@H]2C[C@H](N=[N+]=[N-])[C@@H](CO)O2)c(=O)[nH]c1=O` [ZIDOVUDINE], for which the figures for the 50% effective concentration (EC50) in assay [8] and in assay [9] were 0.94 ng/mL (≈ 0.00352 µM) and 2.2 ng/mL (≈ 0.00823 µM), respectively.

For the compound `O=C(C1=C(c2ccccc2O)Oc2[nH]c(=S)[nH]c(=O)c2C1c1ccc(Br)cc1)N1CCCCC1` (configuration not stated), the IC50 against Alpha-glucosidase is 6.855 mM; against Albumin, 23.1 µM; in assay [11], 24.7 µM. Besides, the zone of inhibition at 100 µg/mL in the assay on Staphylococcus aureus [10] amounted to 9.1 mm.

Consider `COc1ccc(C2c3c(C)n[nH]c3Oc3[nH]c(=O)[nH]c(=O)c32)cc1` (configuration not stated), for which the entries for the “diameter of the inhibition zone (DIZ)” value in the assay with Candida albicans [12], in the assay with Staphylococcus aureus [13] and in the assay with Escherichia coli [14] were 27 mm, 27 mm and 19 mm, respectively.

Consider `O=c1oc2ccccc2c2c1C(c1ccccc1)c1c(Nc3ccc([N+](=O)[O-])cc3)ncnc1O2` (configuration not stated), for which the MIC in the assay on Bacillus subtilis was no more than 125 µg/mL; in the assay on Pseudomonas aeruginosa [15], no more than 125 µg/mL; with Micrococcus luteus, 31.2 µg/mL (≈ 67.2 µM); with Staphylococcus aureus [16], no more than 125 µg/mL; with Raoultella planticola, 31.2 µg/mL (≈ 67.2 µM); with Escherichia coli [17], 31.2 µg/mL (≈ 67.2 µM).

As for `O=C(C1=C(c2ccccc2O)Oc2[nH]c(=S)[nH]c(=O)c2C1c1ccccc1O)N1CCCCC1` (configuration not stated), the zone of inhibition at 100 µg/mL with Pseudomonas aeruginosa [18] came to 10.1 mm; in the assay on Escherichia coli [19], 12.2 mm; in the assay on Klebsiella pneumoniae [20], 11.6 mm. For the same compound, the IC50 against Alpha-glucosidase is 6.197 mM; against Albumin, 26 µM; in [11], 20.1 µM.

For the compound `O=C(C1=C(c2ccccc2O)Oc2[nH]c(=S)[nH]c(=O)c2C1c1ccc(F)cc1)N1CCCCC1` (configuration not stated), the IC50 at Alpha-glucosidase is 4.101 mM; against Albumin, 12.3 µM; in assay [11], 42.8 µM. In addition, the zone of inhibition at 100 µg/mL is 10.5 mm in the assay with Staphylococcus aureus [10] and 9.2 mm with Klebsiella pneumoniae [20].

As to `Cc1nn(-c2ccccc2)c(-n2ccnc2)c1C1C(C#N)=C(N)Oc2[nH]c(=S)[nH]c(=O)c21` (configuration not stated), the MIC in the assay with Clostridium tetani was determined as 100 µg/mL (≈ 225 µM); with Aspergillus fumigatus it was 200 µg/mL (≈ 450 µM); with Candida albicans [22] it was 500 µg/mL (≈ 1120 µM). Moreover, in the assay on Plasmodium falciparum, half-maximal inhibition (IC50) was put at 0.97 µg/mL (≈ 2.18 µM). The inhibition at 250 µg/mL in assay [21] was 37%. In addition, the inhibition at 100 µg/mL in [23] was 30%.

`Cc1nn(-c2ccccc2)c(-n2ccnc2)c1C1C(C#N)=C(N)Oc2c1c(=O)n(C)c(=O)n2C` (configuration not stated): the MIC was 100 µg/mL (≈ 219 µM) with Clostridium tetani, 200 µg/mL (≈ 438 µM) with Aspergillus fumigatus, 100 µg/mL (≈ 219 µM) in the assay on Salmonella typhimurium [24] and 500 µg/mL (≈ 1100 µM) with Candida albicans [22]. In the assay with Plasmodium falciparum, this compound displayed a half-inhibitory concentration (IC50) of 0.082 µg/mL (≈ 0.18 µM). In addition, in assay [21], the inhibition at 250 µg/mL turned out to be 37%. The inhibition at 100 µg/mL in [23] was 30%.
